Test results taken from patent US20050196744A1 (priority 2004, published 2005).
Substitutions are numbered along the chain they refer to. Names may count otherwise. “And” between values parts separate entries of the source, which are not always exact repeats. Identical values can stand only once. Marks after values point to notes of the source that are not given here.

T1: D79E DAT (Rattus norvegicus, UniProt P23977, D79E)
T1 construct: expressed in transfected cells; host or cells: CHO-K1, stably transfected; intact attached monolayers
T1 sequence (P23977 1-619 D79E): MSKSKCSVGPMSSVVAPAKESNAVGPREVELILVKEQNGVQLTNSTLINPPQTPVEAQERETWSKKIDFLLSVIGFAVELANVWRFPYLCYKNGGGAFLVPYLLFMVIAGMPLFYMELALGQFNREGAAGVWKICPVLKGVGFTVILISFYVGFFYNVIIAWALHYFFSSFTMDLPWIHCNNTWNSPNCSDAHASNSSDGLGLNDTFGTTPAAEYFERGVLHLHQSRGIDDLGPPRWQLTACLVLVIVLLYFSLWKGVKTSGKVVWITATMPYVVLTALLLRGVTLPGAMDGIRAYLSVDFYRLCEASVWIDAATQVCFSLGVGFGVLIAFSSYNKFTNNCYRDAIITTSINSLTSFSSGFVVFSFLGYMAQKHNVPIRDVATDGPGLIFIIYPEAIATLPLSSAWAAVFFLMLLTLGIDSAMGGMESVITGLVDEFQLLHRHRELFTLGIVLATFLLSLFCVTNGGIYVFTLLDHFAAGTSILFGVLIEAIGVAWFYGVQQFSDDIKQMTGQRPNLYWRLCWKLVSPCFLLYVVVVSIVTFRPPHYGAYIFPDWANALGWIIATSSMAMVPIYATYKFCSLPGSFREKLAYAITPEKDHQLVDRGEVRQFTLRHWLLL

B1: WT DAT (Rattus norvegicus) (protein)
chain: T1 sequence (P23977 1-619 D79E) with E79D
B2: D79E DAT (Rattus norvegicus; D79E) (protein)
chain: T1 sequence (P23977 1-619 D79E)

Key:
WT DAT [1] = target: T2, WT DAT (Rattus norvegicus, UniProt P23977); assay: [3H]-dopamine uptake and uptake inhibition, CHO cells stably expressing WT DAT; assay type: cell-based
T2 construct: expressed in transfected cells; host or cells: CHO-K1, stably transfected (G-418 selection); intact monolayers in A1 and A3, membranes in A5

D79E DAT [2] = target: T1, D79E DAT; assay: [3H]-dopamine uptake and uptake inhibition, CHO cells stably expressing D79E DAT; assay type: cell-based
D79E DAT [3] = target: T1, D79E DAT; assay: [3H]-WIN 35,428 binding / displacement at CHO cells stably expressing D79E DAT; conditions: for loss of binding affinity ([3H]-WIN 35,428 displacement) caused by the D79E mutation (D79E vs WT DAT): CHO cells, comparison of Ki values
Procedure: (§1) Ligand binding assays. […] Nonradioactive competitor concentrations were as indicated above for uptake inhibition. […] Membranes were aspirated with a Brandel harvester onto GF/B glass-fiber filter paper, washed with 3×5 ml cold binding buffer, and the filters measured for radioactivity via scintillation counting. For all binding assays, data were analyzed with the GraphPad Prism 2.0 software to obtain Kd, Ki and Bmax values.

WT DAT [4] = target: T2, WT DAT; assay: [3H]-WIN 35,428 binding / displacement at intact CHO cells stably expressing WT DAT
Procedure: as §1

intact naïve CHO cells = assay: [3H]-WIN 35,428 low affinity site of intact naïve CHO cells; assay type: binding; conditions: intact naïve (untransfected) CHO cells
Procedure: To further address this steric issue, dihydroxy-benzylamine (DHBA) was employed as a potential DAT substrate. […] Ligand binding assays were conducted under conditions that matched those for assaying uptake inhibition.

[5] = substrate: NCCc1ccc(O)c(O)c1; assay: cells, lysate or membranes; conditions: 22° C., KRH buffer, mean ± standard error, pH 7.3
[6] = CHO cells, comparison of Ki values
[7] = DAT substrates, intact CHO cells, WT DAT, 1 nM [3H]-WIN 35,428, 15 min, 22° C., read-out: Ki, [3H]-WIN inhibition (binding affinity)
[8] = DAT substrates, CHO cells, WT DAT, 22° C., KRH buffer, mean ± standard error, read-out: Ki, inhibition of [3H]-DA uptake
[9] = DAT substrates, CHO cells, D79E DAT, 22° C., KRH buffer, mean ± standard error, read-out: Ki, inhibition of [3H]-DA uptake
[10] = DAT substrates, intact CHO cells, D79E DAT, 1 nM [3H]-WIN 35,428, 15 min, 22° C., read-out: Ki, [3H]-WIN inhibition (binding affinity)

T2 sequence (P23977 whole entry): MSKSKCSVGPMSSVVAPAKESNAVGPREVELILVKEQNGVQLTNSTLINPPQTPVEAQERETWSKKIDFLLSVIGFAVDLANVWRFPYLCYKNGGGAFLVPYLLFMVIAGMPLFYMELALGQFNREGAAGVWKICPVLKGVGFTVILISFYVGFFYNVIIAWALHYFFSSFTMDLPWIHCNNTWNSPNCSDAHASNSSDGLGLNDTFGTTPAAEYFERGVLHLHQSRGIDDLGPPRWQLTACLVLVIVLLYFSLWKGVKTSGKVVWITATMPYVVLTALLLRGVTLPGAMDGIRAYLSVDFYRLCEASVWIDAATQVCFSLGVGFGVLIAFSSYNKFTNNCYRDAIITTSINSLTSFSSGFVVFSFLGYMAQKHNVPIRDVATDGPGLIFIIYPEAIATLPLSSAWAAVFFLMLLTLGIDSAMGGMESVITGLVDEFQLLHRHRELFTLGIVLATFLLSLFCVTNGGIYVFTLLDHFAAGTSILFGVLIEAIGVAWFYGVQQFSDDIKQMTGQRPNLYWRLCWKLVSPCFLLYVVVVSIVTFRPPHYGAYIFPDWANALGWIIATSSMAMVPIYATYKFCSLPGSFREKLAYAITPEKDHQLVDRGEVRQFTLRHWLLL

Row | Molecule | loss of binding affinity ([3H]-WIN 35,428 displacement) caused by the D79E mutation (D79E vs WT DAT) (D79E DAT [3]) | loss of dopamine uptake inhibition potency caused by the D79E mutation (D79E vs WT DAT) (D79E DAT [2]; [6]) | Ki (D79E DAT [3]) [µM] | Ki (WT DAT [4]; [7]) | Ki (WT DAT [1]; [8]) [µM] | Ki (D79E DAT [2]; [9]) [µM] | Ki (D79E DAT [3]; [10]) [µM] | also measured
1 | NCCc1ccc(O)c(O)c1 [Dopamine, dopamine] | almost identical |  |  |  |  |  |  | Vmax/Bmax (dopamine turnover rate) (WT DAT [1]; WT DAT CHO cells, Bmax from [3H]-WIN 35,428 saturation binding): 34.1 min⁻¹; Vmax of dopamine uptake (WT DAT [1]; WT DAT CHO cells, dopamine at 0.1 Ci/mmol, 5 min, 22° C.): 348 ± 22 pmol/mg/min; WT DAT turnover rate higher than that for D79E DAT CHO cells (WT DAT [1]; [3H]-dopamine uptake kinetics, CHO cells): 7 fold; Vmax/Bmax (dopamine turnover rate) (D79E DAT [2]; D79E DAT CHO cells, Bmax from [3H]-WIN 35,428 saturation binding): 7.9 min⁻¹; Vmax of dopamine uptake (D79E DAT [2]; D79E DAT CHO cells, dopamine at 0.1 Ci/mmol, 5 min, 22° C.): 48 ± 4^a pmol/mg/min; decrease in DAT dopamine turnover rate rendered by the D79E mutation (D79E DAT [2]; corrected for fewer transporters at the cell surface): approximately 4 fold
2 | OC1(c2ccc(Cl)cc2)c2ccccc2C2=NCCN21 (stereo not shown) [Mazindol, mazindol] |  | no effect | 0.041 ± 0.003 |  |  |  |  | Ki (WT DAT [4]): 0.013 ± 0.001 µM; Ki (WT DAT [1]): 0.031 ± 0.003 µM; Ki (D79E DAT [2]): 0.047 ± 0.004 µM
3 | COC(=O)C(c1ccccc1)C1CCCCN1 (stereo not shown) [Methylphenidate, methylphenidate] |  | no effect | 0.167 ± 0.002 |  |  |  |  | Ki (D79E DAT [2]): 0.161 ± 0.009 µM
4 | NC[C@H](O)c1ccc(O)c(O)c1 [Norepinephrine] | 2 fold | equally effective | 5.5 ± 0.7 | 2.3 µM | 5.4 | 5.2 ± 0.3 |  | 
5 | COC(=O)[C@H]1[C@@H](c2ccc(F)cc2)C[C@@H]2CC[C@H]1N2C [WIN 35,428] |  | no effect |  |  |  |  |  | Kd (intact naïve CHO cells): > 1 µM; specific binding of [3H]-WIN 35,428 (D79E DAT [3]; D79E DAT, suspended cells or cell membrane preparation in KRH uptake buffer): undetectable
6 | NCCc1cccc(O)c1 [m-Tyramine] |  | unchanged |  | 1 µM | 1.4 ± 0.3 | 1.2 ± 0.3 | 6.6 ± 1.2 | 
7 | NCCc1ccc(O)cc1 [p-Tyramine] |  | 2 fold |  | 0.8 µM | 1.7 ± 0.1 | 3.3 ± 0.4 | 4.3 ± 0.5 | 
8 | dihydroxybenzylamine [DHBA] | identical |  |  | 800 µM and 801 µM | 5760 ± 540 | 782 ± 22 | 791 ± 27 | more potent as inhibitor of [3H]-WIN 35,428 binding than as inhibitor of [3H]-dopamine uptake at WT DAT (WT DAT [4]; intact CHO cells stably expressing WT DAT): 7 fold; Ki at D79E DAT relative to the Ki value for dopamine binding at WT DAT (higher) (D79E DAT [2]): 377 fold; Ki for uptake inhibition at D79E DAT relative to the dopamine Km value at WT DAT (higher) (D79E DAT [2]): 460 fold; potency in inhibiting [3H]-dopamine uptake, higher at D79E DAT compared to WT DAT (D79E DAT [2]; [6]): 7 fold; potency of inhibition of [3H]-WIN 35,428 binding compared with potency for inhibition of [3H]-dopamine uptake at D79E DAT (D79E DAT [3]; intact CHO cells, D79E DAT): agrees well
9 | B1 |  |  |  |  |  |  |  | Km ([5]; other: CHO cells stably expressing WT DAT): 1.7 ± 0.3 µM
10 | B2 |  |  |  |  |  |  |  | Km ([5]; other: CHO cells stably expressing D79E DAT): 2.3 ± 0.3^ μM
